In US20140155635A1, “RESORCYLIC ACID LACTONE COMPOUNDS” (KOREA INSTITUTE OF SCIENCE AND TECHNOLOGY, priority 2012, published 2014):

What was measured:
VEGFR 2 = VEGFR 2 (Homo sapiens, UniProt P35968); details: cited from earlier work
MEK 1/2 = details: cited from earlier work
FLT 3/4 = details: cited from earlier work
[1] = test system: serine/threonine kinase MAPK (mitogen-activated protein kinase); details: cited from earlier work
PDGFRb = PDGFRb (Homo sapiens, UniProt P09619); assay: Assay for inhibitory activity against kinase; details: read-out: % Inhibition (1 uM)
PDGFRb, sequence (P09619 33-1106): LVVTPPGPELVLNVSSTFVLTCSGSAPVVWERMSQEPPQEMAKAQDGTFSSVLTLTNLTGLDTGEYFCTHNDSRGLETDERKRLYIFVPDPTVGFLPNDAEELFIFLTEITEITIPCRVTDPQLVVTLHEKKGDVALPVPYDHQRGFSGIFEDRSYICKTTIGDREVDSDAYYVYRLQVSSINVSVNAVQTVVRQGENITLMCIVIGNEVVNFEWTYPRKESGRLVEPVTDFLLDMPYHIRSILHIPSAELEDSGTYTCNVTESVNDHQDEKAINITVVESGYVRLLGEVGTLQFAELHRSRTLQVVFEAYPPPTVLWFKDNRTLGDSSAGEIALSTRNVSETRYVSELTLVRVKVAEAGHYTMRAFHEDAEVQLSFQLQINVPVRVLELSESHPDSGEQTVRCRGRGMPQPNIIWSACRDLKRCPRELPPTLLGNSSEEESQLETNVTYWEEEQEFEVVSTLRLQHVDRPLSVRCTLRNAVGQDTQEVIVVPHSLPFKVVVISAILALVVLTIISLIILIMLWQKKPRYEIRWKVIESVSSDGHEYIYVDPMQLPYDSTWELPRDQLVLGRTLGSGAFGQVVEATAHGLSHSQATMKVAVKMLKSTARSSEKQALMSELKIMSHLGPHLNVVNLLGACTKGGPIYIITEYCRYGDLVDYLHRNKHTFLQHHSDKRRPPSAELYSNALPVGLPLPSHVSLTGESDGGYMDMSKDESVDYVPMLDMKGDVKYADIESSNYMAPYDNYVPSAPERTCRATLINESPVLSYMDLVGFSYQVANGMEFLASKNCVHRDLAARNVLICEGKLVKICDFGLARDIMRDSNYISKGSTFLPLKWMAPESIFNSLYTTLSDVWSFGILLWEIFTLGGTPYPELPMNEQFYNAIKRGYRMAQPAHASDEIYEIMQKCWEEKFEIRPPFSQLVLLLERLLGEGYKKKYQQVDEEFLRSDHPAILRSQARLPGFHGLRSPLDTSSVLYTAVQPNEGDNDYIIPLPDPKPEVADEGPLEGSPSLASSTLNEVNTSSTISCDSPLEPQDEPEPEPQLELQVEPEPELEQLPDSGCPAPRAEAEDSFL

Molm-14 = assay: Suppressive activity against growth of AML cells (MTT assay); assay type: cell-based; details: Homo sapiens; Molm-14 cancer cell line
FLT1/VEGFR1 = FLT1/VEGFR1 (Homo sapiens, UniProt P17948); assay: Assay for inhibitory activity against kinase; details: read-out: % Inhibition (1 uM)
FLT1/VEGFR1, sequence (P17948 27-1338): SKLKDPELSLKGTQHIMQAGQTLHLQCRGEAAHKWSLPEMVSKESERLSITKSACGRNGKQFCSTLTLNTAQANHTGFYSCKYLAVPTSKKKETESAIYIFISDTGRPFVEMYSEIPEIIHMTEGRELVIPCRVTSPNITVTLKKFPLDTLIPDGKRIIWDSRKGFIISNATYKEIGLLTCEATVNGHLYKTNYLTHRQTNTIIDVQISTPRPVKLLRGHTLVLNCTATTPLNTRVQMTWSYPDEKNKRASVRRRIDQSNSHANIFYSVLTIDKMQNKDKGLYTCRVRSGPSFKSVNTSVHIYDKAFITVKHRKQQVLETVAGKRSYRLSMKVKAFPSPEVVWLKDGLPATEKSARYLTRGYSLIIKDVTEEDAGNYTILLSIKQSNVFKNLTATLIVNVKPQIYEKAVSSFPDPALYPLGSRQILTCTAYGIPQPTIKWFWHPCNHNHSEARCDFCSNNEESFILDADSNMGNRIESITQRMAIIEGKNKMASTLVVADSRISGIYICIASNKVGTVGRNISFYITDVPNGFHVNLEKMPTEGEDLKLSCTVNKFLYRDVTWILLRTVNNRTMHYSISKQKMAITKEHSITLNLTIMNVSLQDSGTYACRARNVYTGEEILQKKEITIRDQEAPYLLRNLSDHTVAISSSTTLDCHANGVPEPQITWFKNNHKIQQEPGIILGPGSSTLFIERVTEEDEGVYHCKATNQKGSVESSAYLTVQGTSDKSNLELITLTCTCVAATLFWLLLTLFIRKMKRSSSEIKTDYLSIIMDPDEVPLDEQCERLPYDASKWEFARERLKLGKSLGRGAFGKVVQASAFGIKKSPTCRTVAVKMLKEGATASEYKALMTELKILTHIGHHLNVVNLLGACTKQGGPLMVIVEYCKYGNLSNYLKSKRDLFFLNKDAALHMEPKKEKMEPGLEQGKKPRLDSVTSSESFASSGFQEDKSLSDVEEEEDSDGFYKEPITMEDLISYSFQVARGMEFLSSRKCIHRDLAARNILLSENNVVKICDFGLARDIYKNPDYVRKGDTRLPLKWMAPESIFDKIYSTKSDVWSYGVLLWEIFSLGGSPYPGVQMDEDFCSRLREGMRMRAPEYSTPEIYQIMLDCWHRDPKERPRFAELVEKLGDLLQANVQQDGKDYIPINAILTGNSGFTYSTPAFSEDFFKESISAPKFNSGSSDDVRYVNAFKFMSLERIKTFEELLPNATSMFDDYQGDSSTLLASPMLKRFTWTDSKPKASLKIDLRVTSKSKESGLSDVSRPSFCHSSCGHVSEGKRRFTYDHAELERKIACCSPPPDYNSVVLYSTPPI

MV4-11 cell line = assay: Suppressive activity against growth of AML cells (MTT assay); assay type: cell-based; details: Homo sapiens, MV4-11 cancer cell line, 48 hrs treatment
Description: The MV4-11 cell line was grown at 37° C. in RPMI medium [Gibco, New York, USA/10% FBS (Gibco), containing 1% penicillin/streptomycin (Gibco)] in a 5% CO2 atmosphere. The grown MV4-11 cell line was withdrawn into PBS, seeded at a density of 3×10^4 cells/well into 96-well plates, and cultured at 37° C. for 24 hrs in a 5% CO2 atmosphere. Various concentrations of the compound (8 points) were prepared by serial dilution in 10 mM DMSO, and the MV4-11 cell line was treated with various concentrations of the compound for 48 hrs. To assess cell viability, 3-(4,5-dimethylthiazol-2-yl)-2,5-diphenyl tetrazolium bromide (MTT) assay (CellTiter 96 Assay, Promega) was performed.
Briefly, the dye was added in an amount of 15 μL to each well and incubated for 2 hrs. Then, each well was incubated with 100 μL of a stop solution for 24 hrs, followed by reading absorbance at 590 nm on EnVision2103. GI50 was calculated using GraphPad Prism 4.0.

VEGFR 2, sequence (P35968 20-1356, species assumed): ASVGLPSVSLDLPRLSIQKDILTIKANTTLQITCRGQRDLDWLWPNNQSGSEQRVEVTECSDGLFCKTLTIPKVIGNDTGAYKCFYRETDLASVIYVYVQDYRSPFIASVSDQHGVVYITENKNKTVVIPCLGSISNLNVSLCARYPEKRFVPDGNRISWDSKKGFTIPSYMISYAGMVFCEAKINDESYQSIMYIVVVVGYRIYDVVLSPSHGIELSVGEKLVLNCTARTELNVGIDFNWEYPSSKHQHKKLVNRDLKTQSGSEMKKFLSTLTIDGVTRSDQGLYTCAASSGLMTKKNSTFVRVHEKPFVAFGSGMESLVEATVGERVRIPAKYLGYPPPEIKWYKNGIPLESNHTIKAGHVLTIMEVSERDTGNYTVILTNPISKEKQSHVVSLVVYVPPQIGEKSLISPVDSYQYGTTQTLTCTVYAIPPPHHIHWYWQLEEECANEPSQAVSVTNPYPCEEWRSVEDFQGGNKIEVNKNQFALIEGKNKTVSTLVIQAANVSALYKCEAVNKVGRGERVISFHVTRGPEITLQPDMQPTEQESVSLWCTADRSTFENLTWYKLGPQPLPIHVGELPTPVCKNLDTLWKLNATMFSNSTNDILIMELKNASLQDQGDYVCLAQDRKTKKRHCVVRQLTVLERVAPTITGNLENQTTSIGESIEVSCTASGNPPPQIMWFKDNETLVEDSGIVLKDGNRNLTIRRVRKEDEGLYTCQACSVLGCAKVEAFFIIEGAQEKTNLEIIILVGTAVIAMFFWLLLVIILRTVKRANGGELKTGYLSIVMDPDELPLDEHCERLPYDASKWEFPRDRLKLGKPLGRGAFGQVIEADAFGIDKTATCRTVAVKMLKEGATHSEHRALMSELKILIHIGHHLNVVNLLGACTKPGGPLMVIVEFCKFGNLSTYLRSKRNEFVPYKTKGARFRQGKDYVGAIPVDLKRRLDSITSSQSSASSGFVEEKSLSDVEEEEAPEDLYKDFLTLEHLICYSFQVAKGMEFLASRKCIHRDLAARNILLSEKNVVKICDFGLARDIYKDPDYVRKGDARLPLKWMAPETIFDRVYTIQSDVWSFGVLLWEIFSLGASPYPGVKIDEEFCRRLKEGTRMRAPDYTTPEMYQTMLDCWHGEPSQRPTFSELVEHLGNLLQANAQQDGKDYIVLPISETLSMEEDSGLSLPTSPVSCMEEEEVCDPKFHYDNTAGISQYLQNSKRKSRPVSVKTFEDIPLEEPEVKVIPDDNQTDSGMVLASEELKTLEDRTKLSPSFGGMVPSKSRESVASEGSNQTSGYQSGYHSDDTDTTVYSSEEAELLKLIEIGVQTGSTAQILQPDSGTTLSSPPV

Row | Structure (SMILES) | inhibitory activity against VEGFR 2 (VEGFR 2) | inhibitory activity against MEK 1/2 (MEK 1/2) | inhibitory activity against FLT 3/4 (FLT 3/4) | inhibition of MAPK (mode) [1] | inhibition at 1 µM (PDGFRb) | GI50 (Molm-14) | inhibition at 1 µM (FLT1/VEGFR1) | GI50 (MV4-11 cell line)
1 | COc1cc(O)c2c(c1)CCC[C@H](O)[C@H](O)C(=O)/C=C\C[C@H](C)OC2=O [Compound L-783277] | potent inhibitory activity | potent inhibitory activity | potent inhibitory activity | irreversible ATP competitive inhibitor |  |  |  | 
2 | COc1cc(O)c2c(c1)-c1cccc(c1)[C@@H](O)[C@H](O)C(=O)/C=C\C[C@H](C)OC2=O [Cpd. 24] |  |  |  |  | 70% | 90 nM | 64% | 30 nM
